Test results: publication PMC12073189, “Synthesis and Evaluation of a Novel Zuranolone Analog with High GABAA Receptor PAM Activity and Excellent Pharmacokinetic Profiles” (Molecules, 2025)
Like-named read-outs stand apart in the source and are kept apart here.

Columns and labels:
CYP2C8 = biological target: T1, CYP2C8 (Homo sapiens, UniProt P10632); experiment: Human liver CYP inhibition assay (cocktail, pooled HLM); assay type: in vitro ADME
T1 construct: tissue XenoTech; host or cells: pooled human liver microsomes
T1 sequence (P10632 1-490): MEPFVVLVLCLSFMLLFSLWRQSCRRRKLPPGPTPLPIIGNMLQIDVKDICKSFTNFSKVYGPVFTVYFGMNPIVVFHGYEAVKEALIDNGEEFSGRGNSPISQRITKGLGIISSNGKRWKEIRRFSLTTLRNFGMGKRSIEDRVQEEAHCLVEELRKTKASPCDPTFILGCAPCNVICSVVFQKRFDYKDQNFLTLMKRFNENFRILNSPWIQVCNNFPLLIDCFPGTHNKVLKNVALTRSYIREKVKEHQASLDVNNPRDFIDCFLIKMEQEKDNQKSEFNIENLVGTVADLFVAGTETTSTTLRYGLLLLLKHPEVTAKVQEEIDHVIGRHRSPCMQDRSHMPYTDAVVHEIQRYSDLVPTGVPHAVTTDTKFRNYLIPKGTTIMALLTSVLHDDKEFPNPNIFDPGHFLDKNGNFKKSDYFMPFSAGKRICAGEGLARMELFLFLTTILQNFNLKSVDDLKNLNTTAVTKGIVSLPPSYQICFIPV
Procedure: The main materials used in this experiment were sourced as follows: Zuranolone from BEIWANTABIO Co., Ltd. (Shanghai, China); liver microsomes (rat and human) and CYP isoenzymes (CYP1A2, CYP2C8, CYP2D6, CYP3A4) from XenoTech (Tewksbury, MA, USA); LTK cells from the China Center for Type Culture Collection (CCTCC, Wuhan, China); and CHO cells from the National Certified Cell Bank (Shanghai, China).
The IC50 values of S9 and Zuranolone on CYP isoenzymes (1A2, 2C8, 2D6, 3A4) were determined in pooled HLM using a cocktail approach, as previously reported.

loss of righting reflex = experiment: Loss of righting reflex (LORR) test; assay type: in vivo, rat; conditions: rats; for LORR threshold dose: intragastric
Procedure: We randomly assigned rats into 6 groups (n = 10): Zuranolone groups at doses of 9.8, 15.6, and 19.5 μmol/kg and S9 groups at doses of 38.9, 48.6, and 58.3 μmol/kg. The number of animals showing LORR, defined as the inability to turn over within 30 s while in the supine position, was recorded within 4 h following intragastric administration of the test drugs or vehicle.

[1] = Plasma pharmacokinetic study in rats; assay type: in vivo, rat; conditions: for AUC(0-t) / C0 / half-life / Cmax / Tmax: rat plasma, n = 6; for bioavailability / Tmax: rat, plasma; for bioavailability: oral, 24.4 μmol/kg, i.g. 24.4 vs i.v. 6.1 μmol/kg, read-out: F (oral absolute bioavailability)
Procedure: We quantified S1–S15 and Zuranolone using a UPLC-MS/MS (Agilent 1290 Infinity II UHPLC (Agilent Technologies, Santa Clara, CA, USA) coupled with a QTRAP 5500 MS/MS (ESI source) (SCIEX, Redwood City, CA, USA for MS/MS). The method assessed the content level of S9 and Zuranolone in microsome metabolism and in rat brain tissue and plasma. An ACQUITY UPLC Peptide BEH C18 column (Waters; 50 × 2.1 mm, 1.7 μm; 60 °C; Waters Corporation, Milford, MA, USA) was used with a mobile phase of 0.02% propionic acid in water (A) and acetonitrile (B). The gradient elution of the mobile phase B is carried out as follows: it is 10% from 0 to 0.5 min, 90% from 0.8 to 2.5 min, and 10% from 2.8 to 3.5 min, with a flow rate of 0.40 mL/min. Quantitative analysis was performed on a QTRAP 5500 MS (SCIEX, Redwood City, CA, USA) in positive ionization mode with MRM (multiple reaction monitoring), using progesterone-d9 as the internal standard. MRM transitions and parameters were optimized for each analyte, with collision energies of 25 V (S1–S15), 23 V (Zuranolone), and 30 V (IS), and declustering potentials of 80 V (S1–S15), 90 V (Zuranolone), and 180 V (IS). Other conditions were as follows: curtain gas 10 psi, collision gas ‘medium’, ion spray voltage 5500 V, temperature 500 °C, and ionization source gases 1 and 2 at 50 psi.
Zuranolone was solubilized in 5% DMSO with solutol HS 15 in saline. S9 was solubilized in 10% DMSA with 30% SBECD (Zibo Qianhui Biological Technology Co., Ltd., Zibo, China) in saline. After fasting for 12 h, rats (n = 6 per group) were administered Zuranolone and S9 intragastrically (i.g.) at a dose of 24.4 μmol/kg, and intravenously (i.v.) at 6.1 μmol/kg. Blood samples (200 μL) were collected into 1.5 mL tubes containing heparin at 15 min, 30 min, 1, 2, 3, 4, 6, 8, 12, 24, 48, and 96 h after i.g. or at 5, 15, 30 min, and 1, 2, 3, 4, 6, 8, 12, 24, 48, 96 h after i.v. Plasma was separated by centrifugation for 5 min (8000 rpm, 4 °C) and stored at −80 °C immediately.
Experimental data were analyzed by GraphPad Prism software 9.0 and presented as means ± SD. Statistical differences were determined by one-way ANOVA followed by Dunnett’s post-hoc test, with p < 0.05 considered statistically significant. Main pharmacokinetic parameters were calculated using Phoenix WinNonlin 8.1 (non-compartmental model), and the absolute bioavailability of S9 was determined by the following formula: (AUC i.g. (0–t) × dose i.v.)/(AUC i.v. (0–t) × dose i.g.) × 100%.

[2] = iv, 6.1 umol/kg, i.v. 6.1 μmol/kg
[3] = po, 24.4 umol/kg, i.g. 24.4 μmol/kg

| Compound | LORR threshold dose (loss of righting reflex) [µmol/kg] | AUC(0-t) [1, 2] [µM·h] | C0 [1, 2] [µM] | half-life [1, 2] [h] | AUC(0-t) [1, 3] [µM·h] | Cmax [1, 3] [µM] | half-life [1, 3] [h] | bioavailability ([1]; rats) [%] | Tmax [1, 3] [h] | also measured |
| --- | --- | --- | --- | --- | --- | --- | --- | --- | --- | --- |
| C[C@@]1(O)CC[C@H]2[C@H](CC[C@@H]3[C@@H]2CC[C@]2(C)[C@@H](C(=O)Cn4cnn(-c5ccnc(OCC(F)(F)F)c5)c4=O)CC[C@@H]32)C1 [S9] | 38.9 | 24.2 | 2.86 ± 0.223 | 16.4 ± 0.56 | 80.4 | 3.6 ± 0.541 | 19.8 ± 1.5 | 82.9 | ~3.7 | IC50 (CYP2C8; human liver CYP isoenzymes, pooled HLM, read-out: CYP IC50: 2C8): > 30 µM; Latency to LORR (loss of righting reflex; i.g. 48.6 μmol/kg): 68 min; Latency to LORR (loss of righting reflex; i.g. 58.3 μmol/kg): 59 min; increase in AUC compared to S28 ([1]; S28 previously reported ref 25): over 2 fold; increase in T1/2 compared to S28 ([1]; S28 previously reported ref 25): over 2 fold; AUC0–t as fold of Zuranolone ([1]; rats, i.g. 24.4 μmol/kg): approximately 6.7 fold; T1/2 as fold of Zuranolone ([1]; rats, i.g. 24.4 μmol/kg): approximately 5.2 fold; AUC0–t as fold of Zuranolone ([1]; rats, i.v. 6.1 μmol/kg): approximately 4.7 fold; T1/2 as fold of Zuranolone ([1]; rats, i.v. 6.1 μmol/kg): approximately 6.6 fold; AUC higher than Zuranolone ([1]; rats, route not given): 6 fold; plasma T1/2 longer than Zuranolone ([1]; rats, route not given): 5 fold |
| C[C@@]1(O)CC[C@H]2[C@H](CC[C@@H]3[C@@H]2CC[C@]2(C)[C@@H](C(=O)Cn4cc(C#N)cn4)CC[C@@H]32)C1 [Zuranolone] | 9.8 | 5.18 ± 1.73 | 3.43 ± 1.74 | 2.5 ± 1.3 | 12 | 2.28 ± 0.554 | 3.8 ± 1.7 | 57.7 | ~1.2 | IC50 (CYP2C8): > 30 µM; Latency to LORR (loss of righting reflex; i.g. 15.6 μmol/kg): 35 min; Latency to LORR (loss of righting reflex; i.g. 19.5 μmol/kg): 30 min |
